The source of these data is article PMC10848209, “A Comparative Study on the Complexation of the Anticancer Iron Chelator VLX600 with Essential Metal Ions” (Inorganic Chemistry, 2024).

Bounds are passed on as bounds.

For series [1], the system named is Colo205 colon adenocarcinoma cells. The series can be described thus: MTT cytotoxicity assay, Colo205. The following applies: read-out: IC50 Colo205, 10^4 cells, 72 h exposure. Background: Tetrazolium dyes change colour on reduction, which living cells bring about.
Method: (§1) Cells were grown as monolayers in 75 cm^2 culture flasks (Starlab, Hamburg, Germany) at 37 °C in a humidified atmosphere containing 5% CO2.
(§2) The cytotoxic activity of the compounds was determined by the 3-(4,5-dimethylthiazol-2-yl)-2,5-diphenyl-2H-tetrazolium bromide (MTT) assay (obtained from Acros Organics, Geel, Belgium) in at least three independent experiments. […] Furthermore, 1 × 10^4 cells of Colo205, Colo320, and MCF-7 as well as MRC-5 were seeded overnight prior to the assay with 72 h exposure to the compounds tested. […] In the case of the metal complexes, we first mixed the ligand and the aqueous metal salt solution (c = 10 mM) in the appropriate ratio followed by dilution with the medium. The metal salts dissolved in the same way were also tested.
(§3) MTT assays with the cell lines Colo205, Colo320, MCF-7, and MRC-5 were performed after addition of the substances and a subsequent 72 h incubation time. At the end of the incubation period, 20 μL of the MTT solution (from a stock solution of 5 mg/mL) was added to each well. After the staining, the plates were incubated at 37 °C for 4 h, then 100 μL of SDS solution (10% in 0.01 M HCI) was added to each well, and the plates were incubated at 37 °C overnight. The optical density (OD) was determined at 540/630 nm with a Multiscan EX ELISA reader (Thermo Labsystems).
(§4) The IC50 values, i.e., the concentrations resulting in half the number of viable cells relative to untreated controls, were interpolated from concentration–effect curves of at least three independent experiments.
Series [2] relates to A549 non-small-cell lung cancer cells. Briefly: MTT cytotoxicity assay, A549. The conditions noted are these: read-out: IC50 A549, 3 × 10^3 cells, 96 h exposure.
Method: (§5) CH1/PA-1 (provided by L.R. Kelland, CRC Centre for Cancer Therapeutics, Institute of Cancer Research, Sutton, UK; confirmed by STR profiling as PA-1 ovarian teratocarcinoma cells at Multiplexion, Heidelberg, Germany), SW480 colon carcinoma, and A549 non-small-cell lung cancer cells (both obtained from the American Type Culture Collection, Manassas, VA, USA) were maintained in a minimal essential medium (MEM) supplemented with 1 mM sodium pyruvate, 4 mM L-glutamine, 1% (v/v) nonessential amino acids from 100-fold stock (all purchased from Sigma-Aldrich), and 10% heat-inactivated fetal bovine serum (FBS; BioWest, Nuaillé, France).
as §1
(§6) The cytotoxic activity of the compounds was determined by the 3-(4,5-dimethylthiazol-2-yl)-2,5-diphenyl-2H-tetrazolium bromide (MTT) assay (obtained from Acros Organics, Geel, Belgium) in at least three independent experiments. A total of 1 × 10^3 CH1/PA-1, 2 × 10^3 SW480, and 3 × 10^3 A549 cells were seeded at 100 μL per well into 96-well microculture plates (Starlab, Hamburg, Germany) 24 h before a treatment with the test compounds for a period of 96 h. […] In the case of the metal complexes, we first mixed the ligand and the aqueous metal salt solution (c = 10 mM) in the appropriate ratio followed by dilution with the medium.
(§7) CH1/PA-1, SW480, and A549 cells were treated with 100 μL/well of the test compounds serially diluted in complete MEM. […] After 4 h incubation, the MTT-containing medium was replaced with 150 μL DMSO per well to dissolve the formazan product formed by viable cells.
as §4
Series [3] deals with SW480 colon carcinoma cells. The series can be described thus: MTT cytotoxicity assay, SW480. The conditions noted are these: read-out: IC50 SW480, 2 × 10^3 cells, 96 h exposure.
Method: as §5, §1, §6, §7, §4
Series [4] concerns MCF-7 breast cancer cells. The series can be described thus: MTT cytotoxicity assay, MCF-7. The conditions noted are these: read-out: IC50 MCF-7, 10^4 cells, 72 h exposure.
Method: as §1, §2, §3, §4
Series [5] deals with Colo320 (doxorubicin-resistant) colon adenocarcinoma cells. Briefly: MTT cytotoxicity assay, Colo320. The following applies: read-out: IC50 Colo320, 10^4 cells, 72 h exposure.
Method: as §1, §2, §3, §4
The subject of series [6] is MRC-5 normal embryonal lung fibroblasts. The series can be described thus: MTT cytotoxicity assay, MRC-5. The conditions noted are these: read-out: IC50 MRC-5, 10^4 cells, 72 h exposure, nontumoral fibroblasts.
Method: as §1, §2, §3, §4
The subject of series [7] is CH1/PA-1 ovarian teratocarcinoma cells. Briefly: MTT cytotoxicity assay, CH1/PA-1. The following applies: read-out: IC50 CH1/PA-1, 10^3 cells, 96 h exposure.
Method: as §5, §1, §6, §7, §4
On the set-up of series [8]: method as in PMID 30236787. The conditions noted are these: vs NHE; cited from earlier work.

On to `[Cl][Fe]([Cl])[Cl]` [FeCl3], for which the IC50 is over 10 µM in series [1]; over 200 µM in series [2]; over 200 µM in series [3]; over 10 µM in series [4]; over 10 µM in series [5]; over 10 µM in series [6]. Also, in series [7], the IC50 was over 200 µM.

Turning to `[Cl][Cu][Cl]` [CuCl2], the IC50 in series [1] was over 10 µM; in series [2], 142 ± 16 µM; in series [3], 154 ± 21 µM; in series [4], over 10 µM; in series [5], over 10 µM; in series [6], over 10 µM. The IC50 in series [7] is 28 ± 5 µM.

Regarding `O=C(O)c1ccc(-n2nc(-c3ccccc3O)nc2-c2ccccc2O)cc1` [deferasirox], the “redox potential of the Fe(III)/Fe(II) complexes of the ligand” value (“redox potential” for short) in series [8] is −400 mV.

For the molecule `Cc1c(O)c(=O)ccn1C` [deferiprone], in series [8], the “redox potential” value is on record as −620 mV.

`c1cnc2c(c1)ccc1cccnc12` [1,10-phenantroline]: in series [8], the “redox potential” value is recorded as “+1130 mV”.

On to `CC(=O)N(O)CCCCCNC(=O)CCC(=O)N(O)CCCCCNC(=O)CCC(=O)N(O)CCCCCN` [deferoxamine B], for which the “redox potential” value in series [8] is recorded as −450 mV.

Turning to `[Cl-].[Cl-].[Zn+2]` [ZnCl2], the IC50 was over 10 µM in series [1]; 123 ± 9 µM in series [2]; 125 ± 16 µM in series [3]; over 10 µM in series [4]; over 10 µM in series [5]; over 10 µM in series [6]. Moreover, in series [7], the IC50 was found to be 66 ± 3 µM.

Take `c1ccc(-c2ccccn2)nc1` [2,2-bipiyridine]: the “redox potential” value in series [8] is listed as “+1100 mV”.
